# Measured values as given in paper PMC11472310, “Distinctive Immune Signatures Driven by Structural Alterations in Desmuramylpeptide NOD2 Agonists” (Journal of Medicinal Chemistry, 2024).
# Like-named read-outs stand apart in the source and are kept apart here.
# Experiments:
# [1] = system: human PBMCs; assay: Cytokine release from peripheral blood mononuclear cells (LEGENDplex panel); format: cell-based; conditions: 18 h
# Text: The immunomodulatory effects of the selected desmuramylpeptides were examined in human primary peripheral blood mononuclear cells (PBMCs). This diverse mixture of immune cells provided a platform to investigate the effects of these NOD2 agonists within a physiologically relevant environment, encompassing other NOD2-interacting and downstream signaling proteins. […] Given that NOD2 activation often modulates the Toll-like receptor (TLR)-induced cytokine responses, we investigated the impact of combining desmuramylpeptides with lipopolysaccharide (LPS), a well-known TLR4 agonist, on cytokine secretion.[76]−[78]
# The elicited cytokine profiles thus broadly reflect the structure–activity relationships obtained in the reporter gene assays.
# Peripheral blood mononuclear cells were plated at a density of 1 × 10^6 cells/mL in 48-well plates containing 500 μL of growth medium. Cells were then treated with the compounds (2 μM) or the corresponding vehicle (0.1% DMSO), both in the absence and presence of LPS (10 ng/mL). Following an 18 h incubation period at 37 °C with 5% CO2, cell-free supernatants were collected and stored at −80 °C until analysis. […] Standard curves were constructed using recombinant cytokines provided in the kit. Data analysis was performed using Biolegend software Qognit and Prism (GraphPad, San Diego, CA, USA) software. The experiments were independently replicated four times. Statistical significance was determined using two-way analysis of variance (ANOVA) followed by Tukey’s multiple comparisons test.
# [2] = biological target: T1, hNOD2 (Homo sapiens, UniProt Q9HC29); assay: HEK-Blue NOD2 cell line reporter assay (NF-κB-inducible SEAP); format: cell-based
# T1 construct: host or cells: HEK-Blue NOD2 cells (HEK293)
# T1 sequence (Q9HC29 whole entry): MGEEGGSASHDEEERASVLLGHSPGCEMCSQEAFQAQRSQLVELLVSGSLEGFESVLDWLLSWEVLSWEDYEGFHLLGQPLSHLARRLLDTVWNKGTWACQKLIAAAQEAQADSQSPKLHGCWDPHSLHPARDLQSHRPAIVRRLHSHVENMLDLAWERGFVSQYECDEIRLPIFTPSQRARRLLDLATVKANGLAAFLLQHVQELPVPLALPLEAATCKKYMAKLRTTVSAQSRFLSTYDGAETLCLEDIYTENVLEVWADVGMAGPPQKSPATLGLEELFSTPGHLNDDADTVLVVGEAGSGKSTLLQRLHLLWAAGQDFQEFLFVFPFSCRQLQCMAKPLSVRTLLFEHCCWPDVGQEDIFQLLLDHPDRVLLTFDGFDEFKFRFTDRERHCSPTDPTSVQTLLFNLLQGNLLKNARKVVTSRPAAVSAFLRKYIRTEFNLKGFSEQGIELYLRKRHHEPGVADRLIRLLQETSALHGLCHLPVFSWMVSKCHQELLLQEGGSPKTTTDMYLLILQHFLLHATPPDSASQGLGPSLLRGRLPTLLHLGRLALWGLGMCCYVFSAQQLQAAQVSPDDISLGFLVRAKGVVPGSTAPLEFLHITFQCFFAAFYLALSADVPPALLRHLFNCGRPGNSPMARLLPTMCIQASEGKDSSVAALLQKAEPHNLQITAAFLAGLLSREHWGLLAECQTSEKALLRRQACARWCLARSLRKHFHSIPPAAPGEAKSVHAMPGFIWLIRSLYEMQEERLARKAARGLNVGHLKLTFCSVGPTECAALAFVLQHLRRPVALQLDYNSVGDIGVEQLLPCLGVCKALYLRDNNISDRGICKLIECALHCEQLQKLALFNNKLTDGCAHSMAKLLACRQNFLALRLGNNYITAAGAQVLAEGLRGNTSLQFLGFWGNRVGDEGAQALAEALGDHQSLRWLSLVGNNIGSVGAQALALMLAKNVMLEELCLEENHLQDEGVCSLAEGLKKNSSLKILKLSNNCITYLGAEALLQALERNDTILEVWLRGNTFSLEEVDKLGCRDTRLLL
# Procedure: To assess the NOD2 agonistic potential of the synthesized desmuramylpeptides at a cellular level, we employed the HEK-Blue NOD2 cell line reporter assay, a validated and commercially available method. All synthesized compounds were evaluated for their dose-dependent activities to establish their EC50 values.
# The HEK-Blue NOD1 and NOD2 cell line reporter assay was generated from HEK293 cells through cotransfection of the hNOD1 or hNOD2 gene, respectively, along with an NF-κB-inducible secreted embryonic alkaline phosphatase (SEAP) reporter gene. Upon activation of NOD1 or NOD2, NF-κB triggers the production of SEAP, which can be quantitatively measured colorimetrically. […] After 18 h of incubation at 37 °C with 5% CO2, SEAP activity was measured spectrophotometrically by absorbance at 630 nm (BioTek Synergy microplate reader; Winooski, VT, USA). EC50 values were determined using Prism software (version 9; GraphPad Software, CA, USA). Each experiment was conducted in duplicate and repeated in at least two independent biological replicates.
# [3] = system: K562 cancer cells; assay: PBMC cytotoxicity against K562 cancer cells (flow cytometry); format: cell-based; conditions: for cytotoxicity of PBMCs against K562 cells, cotreatment with LPS (relative to negative control) / Cytotoxicity (ratio to control), + LPS: 10 μM + LPS 1 μg/mL; for cytotoxicity of PBMCs against K562 cells, cotreatment with LPS (relative to negative control) / enhancement of cytotoxicity of PBMCs against K562 cells (relative to negative control): 18 h, then 4 h coincubation; for cytotoxicity of PBMCs against K562 cells, cotreatment with LPS (relative to negative control): 40:1; for Cytotoxicity (ratio to control), + LPS / Cytotoxicity (ratio to control): Table S2; for Cytotoxicity (ratio to control) / enhancement of cytotoxicity of PBMCs against K562 cells (relative to negative control): alone: compounds 10 μM, LPS 1 μg/mL, IL-2 200 U/mL; for enhancement of cytotoxicity of PBMCs against K562 cells (relative to negative control): effector:target 40:1
# Procedure: In this study, we investigated the potential of desmuramylpeptides, both alone and in combination with LPS, to enhance the cytotoxic activity of PBMCs against cancer cells employing a flow-cytometry-based cytotoxicity assay based on coincubation of preactivated PBMCs with fluorescently labeled K562 cancer cells.[82] Among the diverse subpopulations within PBMCs, natural killer (NK) cells play a pivotal role in detecting and eliminating cancer cells. NOD2-mediated NK cell activity against cancer cells arises from both direct NOD2 agonist elicited cytolytic activity of NK cells[83] and indirect activation through cytokine release by other NOD2-responsive cells, such as monocytes, which comprise approximately 10% of PBMCs; such interactions potentially reinforce the immune response.[84] […] To that end, we utilized the entire PBMC population as effector cells rather than isolated NK cells, to mimic conditions more closely resembling the in vivo environment while K562 chronic myelogenous leukemia cells were used as the target cells in a 40:1 effector to target cell ratio.[87]
# (§1) The PBMC cytotoxicity assays utilizing K562 cells were conducted following previously established methods, with some adjustments.[82] […] Meanwhile, K562 cells were stained with CFSE (Invitrogen, Carlsbad, CA, USA), washed twice with complete medium, and then added (1 × 10^4 cells per well) to the pretreated PBMCs to achieve a final effector cell to target tumor cell ratio of 40:1. Following a 4-h coincubation period at 37 °C with 5% CO2, cells were stained with Sytox blue dead cell stain (Invitrogen) and analyzed using an Attune NxT flow cytometer (Thermo Fisher Scientific, Waltham, MA, USA) along with FlowJo software (Tree Star, Inc., Ashland, OR, USA). Cells positive for both CFSE and Sytox blue were designated as dead K562 cells. PBMCs alone and CFSE-labeled cancer cells alone were also exposed to the compounds at equivalent concentrations and stained with Sytox blue to assess any direct cytotoxic effects of the compounds on PBMCs and cancer cells separately. Each experiment was conducted in duplicate and repeated in three independent biological replicates. Statistical analysis was performed using one-way ANOVA followed by Dunnett’s multiple comparisons test.
# [4] = Kinetic solubility (method of Hoelke et al.); format: physicochemical
# Text: Park et al. have shown that the degree of saturation of fatty acids exerts a profound impact on permeability of fatty acylated peptides—a higher degree of unsaturation results in higher permeability.[43] PUFA can also induce significant biophysical perturbations upon incorporation into membrane phospholipids.[67],[68] […] Given that the hydrophobicity of fatty acyl residues in general reduces as the number of unsaturated sites increases,[69],[70] we decided to ascertain how such structural modifications translate to the kinetic solubility of the molecule as a whole. […] The acylation with PUFA thus provides an elegant, albeit counterintuitive, approach, by which permeability of the molecule as a whole as well as its capacity for liposomal encapsulation can be enhanced without completely abolishing its aqueous solubility.
# [5] = system: PBMCs; assay: Direct cytotoxic effect of compounds on PBMCs (Sytox blue); format: cell-based; conditions: Table S2; for Percent of dead PBMCs, + LPS: 10 μM + LPS 1 μg/mL; for Percent of dead PBMCs: alone: compounds 10 μM, LPS 1 μg/mL, IL-2 200 U/mL
# Procedure: Additionally, PBMCs and cancer cells alone were treated with desmuramylpeptides to assess any direct cytotoxic effects on these cells.
# as §1
# [6] = HEK-Blue NOD2 cells, 18 h, NF-κB transcriptional activity (SEAP), read-out: EC50 (nM), NOD2 agonistic activity
SMILES,"EC50 [2, 6]",Kinetic solubility [4],solubility kinetic [4],levels of LPS-induced IL-10 ([1]; 2 μM + LPS 10 ng/mL),"cytotoxicity of PBMCs against K562 cells, cotreatment with LPS (relative to negative control) [3]","Cytotoxicity (ratio to control), + LPS [3]",Cytotoxicity (ratio to control) [3],enhancement of cytotoxicity of PBMCs against K562 cells (relative to negative control) [3],"Percent of dead PBMCs, + LPS [5]",Percent of dead PBMCs [5],further results
CCCCCCCCCCCC(=O)Oc1ccc(/C=C/C(=O)NCC(=O)N[C@H](C(=O)N[C@H](CCC(=O)OCC)C(=O)OCC)C(C)C)cc1OC [Compound 2],9.9 ± 0.69 nM,insoluble,,amplified,1.54 fold,1.54 ± 0.08,1.00 ± 0.05,no activity,8.07% ± 0.47%,0.96% ± 0.14%,"production of MCP-1 and IFN-γ compared to the MDP/LPS combination ([1]; 2 μM + LPS 10 ng/mL): significantly diminished production; secretion of IL-1β, IL-10 and TGFβ compared to the MDP/LPS combination ([1]; 2 μM + LPS 10 ng/mL): increased secretion; boost of NOD2 agonist activity on incorporation into SLN/NLC ([2]; 2-loaded SLNs and NLCs versus free 2): 5 factor; EC50 ([2]; HEK-Blue NOD2 cell line, SLN and NLC formulations by melt-emulsification): 10.5 nM"
"CCOC(=O)[C@@H](CCC(=O)NCCCNCCCCNCCCN)NC(=O)[C@@H](NC(=O)CNC(=O)/C=C/c1ccc(O)c(OC)c1)C(C)C [Compound 32, N^5-(3-((4-((3-Aminopropyl)amino)butyl)amino)propyl)-N^2-((E)-3-(4-hydroxy-3-methoxyphenyl)acryloyl)glycyl-L-valyl-D-glutaminate]",8640 ± 1920 nM,,,opposite,2.95 fold,2.95 ± 0.41,1.10 ± 0.06,devoid of the capacity to induce cytotoxicity,7.20% ± 0.36%,1.01% ± 0.22%,"amounts of IL-1β, IL-6, IL-10, TNF-α and IFN-γ compared to the MDP/LPS combination ([1]; 2 μM + LPS 10 ng/mL): lesser amounts; levels of secreted MCP-1 compared to the MDP/LPS combination ([1]; 2 μM + LPS 10 ng/mL): on par; production of proinflammatory cytokines and chemokines including IL-6, IL-8 and MCP-1 ([1]; 2 μM alone (no LPS)): smaller increases; EC50 ([2]; HEK-Blue NOD2 cells, 18 h, read-out: EC50, NOD2 agonistic activity (text)): 8600 nM"
"CCCCCCCCCCCCCCCC(=O)Oc1ccc(/C=C/C(=O)NCC(=O)N[C@H](C(=O)N[C@H](CCC(=O)OCC)C(=O)OCC)C(C)C)cc1OC [Compound 9, Diethyl ((E)-3-(3-Methoxy-4-(palmitoyloxy)phenyl)acryloyl)glycyl-L-valyl-D-glutamate]",382 ± 121 nM,insoluble,,,,,,,,,

# Continued, in another order:
"EC50 [2, 6]",Kinetic solubility [4],solubility kinetic [4],SMILES,levels of LPS-induced IL-10 ([1]; 2 μM + LPS 10 ng/mL),"cytotoxicity of PBMCs against K562 cells, cotreatment with LPS (relative to negative control) [3]","Cytotoxicity (ratio to control), + LPS [3]",Cytotoxicity (ratio to control) [3],enhancement of cytotoxicity of PBMCs against K562 cells (relative to negative control) [3],"Percent of dead PBMCs, + LPS [5]",Percent of dead PBMCs [5],further results
96.1 ± 51.5 nM,,321 µM,"CCOC(=O)CC[C@@H](NC(=O)[C@@H](NC(=O)CNC(=O)/C=C/c1cc(OC)c(O)c(OC)c1)C(C)C)C(=O)OCC [Compound 37, Diethyl ((E)-3-(4-Hydroxy-3,5-dimethoxyphenyl)acryloyl)glycyl-L-valyl-D-glutamate]",,,,,,,,
,,417 µM,CCOC(=O)CC[C@@H](NC(=O)[C@@H](NC(=O)CNC(=O)/C=C/c1ccc(O)c(OC)c1)C(C)C)C(=O)OCC [Compound 1],,,,,,,,
356 ± 24 nM,,209 µM,"CCOC(=O)[C@@H](CCC(=O)OCCN1CCOCC1)NC(=O)[C@@H](NC(=O)CNC(=O)/C=C/c1ccc(O)c(OC)c1)C(C)C [Compound 35, 1-Ethyl 5-(2-Morpholinoethyl) ((E)-3-(4-hydroxy-3-methoxyphenyl)acryloyl)glycyl-L-valyl-D-glutamate]",,,,,,,,drop in activity compared to 1 ([2]; ethyl ester replaced with morpholinoethyl): 4 factor
